Measurements: paper PMC9948168, “Vanillin-Based Indolin-2-one Derivative Bearing a Pyridyl Moiety as a Promising Anti-Breast Cancer Agent via Anti-Estrogenic Activity” (ACS Omega, 2023)
Several values for one entry are separate records, joined by “and”; a condition that tells them apart may be missing. Identical values can stand only once.

Legend:
A498 = assay: NCI-60 one-dose screening; assay type: cell-based; details: Homo sapiens, A498, Renal Cancer, read-out: GI (%)
A549/ATCC = assay: NCI-60 one-dose screening; assay type: cell-based; details: Homo sapiens, Non-Small Cell Lung Cancer, read-out: GI (%)
ACHN = assay: NCI-60 one-dose screening; assay type: cell-based; details: Homo sapiens, Renal Cancer, read-out: GI (%)
BT-549 = assay: NCI-60 one-dose screening; assay type: cell-based; details: Homo sapiens, BT-549, Breast Cancer, read-out: GI (%)
CAKI-1 = assay: NCI-60 one-dose screening; assay type: cell-based; details: Homo sapiens, CAKI-1, Renal Cancer, read-out: GI (%)
CCRF-CEM = assay: NCI-60 one-dose screening; assay type: cell-based; details: Homo sapiens, Leukemias, read-out: GI (%)
COLO 205 = assay: NCI-60 one-dose screening; assay type: cell-based; details: Homo sapiens, COLO 205, Colon Cancer, read-out: GI (%)
HCT-15 = assay: NCI-60 one-dose screening; assay type: cell-based; details: Homo sapiens, HCT-15, Colon Cancer, read-out: GI (%)
HL-60(TB) = assay: NCI-60 one-dose screening; assay type: cell-based; details: Homo sapiens, Leukemias, read-out: GI (%)
K-562 = assay: NCI-60 one-dose screening; assay type: cell-based; details: Homo sapiens, K562, K-562, Leukemias, read-out: GI (%)
M14 = assay: NCI-60 one-dose screening; assay type: cell-based; details: Homo sapiens, M14, Melanoma, read-out: GI (%)
MCF7 = assay: NCI-60 one-dose screening; assay type: cell-based; details: Homo sapiens, MCF7, 10 μM; MCF7, Breast Cancer; read-out: GI (%)
MDA-MB-435 = assay: NCI-60 one-dose screening; assay type: cell-based; details: Homo sapiens, MDA-MB-435, Melanoma, read-out: GI (%)
MOLT-4 = assay: NCI-60 one-dose screening; assay type: cell-based; details: Homo sapiens, MOLT-4, Leukemias, read-out: GI (%)
NCI-H226 = assay: NCI-60 one-dose screening; assay type: cell-based; details: Homo sapiens, NCI-H226, Non-Small Cell Lung Cancer, read-out: GI (%)
NCI-H322M = assay: NCI-60 one-dose screening; assay type: cell-based; details: Homo sapiens, Non-Small Cell Lung Cancer, read-out: GI (%)
OVCAR-4 = assay: NCI-60 one-dose screening; assay type: cell-based; details: Homo sapiens, OVCAR-4, 10 μM; OVCAR-4, Ovarian Cancer; read-out: GI (%)
OVCAR-5 = assay: NCI-60 one-dose screening; assay type: cell-based; details: Homo sapiens, OVCAR-5, Ovarian Cancer, read-out: GI (%)
RXF 393 = assay: NCI-60 one-dose screening; assay type: cell-based; details: Homo sapiens, RXF 393, Renal Cancer, read-out: GI (%)
SK-MEL-2 = assay: NCI-60 one-dose screening; assay type: cell-based; details: Homo sapiens, SK-MEL-2, Melanoma, read-out: GI (%)
SK-OV-3 = assay: NCI-60 one-dose screening; assay type: cell-based; details: Homo sapiens, SK-OV-3, Ovarian Cancer, read-out: GI (%)
SNB-19 = assay: NCI-60 one-dose screening; assay type: cell-based; details: Homo sapiens, SNB-19, CNS Cancer, read-out: GI (%)
SW-620 = assay: NCI-60 one-dose screening; assay type: cell-based; details: Homo sapiens, SW-620, Colon Cancer, read-out: GI (%)
TK-10 = assay: NCI-60 one-dose screening; assay type: cell-based; details: Homo sapiens, TK-10, Renal Cancer, read-out: GI (%)
UACC-257 = assay: NCI-60 one-dose screening; assay type: cell-based; details: Homo sapiens, UACC-257, Melanoma, read-out: GI (%)
ER-α = assay: In vitro ER-α inhibitory ELISA assay in MCF-7 cells; assay type: cell-based, human; details: 1 μg/mL, 24 h
Experimental: An in vitro ER-α inhibitory ELISA assay was performed using a Human ER-α/Estrogen Receptor ELISA Kit (Sandwich ELISA) (Lifespan Biosciences, Seattle, Washington, USA) as previously described.[64] The cells were plated at a density of 2000 cells/well in a 96-well plate. […] After 24 h, the pellets of the cells were collected by centrifugation. The cells were washed three times with PBS and then lysed by ultrasonication, and the supernatant was collected for testing. The wells were loaded with 100 μL of either standards or samples and incubated for 90 min at 37 °C. The wells were washed with 1× wash buffer for removing any unbound sample and 100 μL 1× biotinylated detection antibody was next put in and incubated for 1 h at 37 °C. The wells were rewashed with 1× wash buffer, and 100 μL 1× HRP conjugate was then added and incubated for 30 min at 37 °C. A third wash with 1× wash buffer was done and 90 μL of the TMB substrate was added. The TMB substrate reacted with the HRP enzyme, ensuring a color development, and the reaction was terminated using 50 μL of a stop solution. Finally, the optical density (OD) of the well was measured at a wavelength of 450 nm ± 2 nm. The OD of an unknown sample was calculated by correlation with a standard curve generated by standards with known concentrations.

COc1cc(C=C2C(=O)Nc3ccc(Cl)cc32)ccc1OCc1ccccn1 (mixture of isomers) [6j]
inhibition at 10 µM (A498): 0.8% | inhibition at 10 µM (A549/ATCC): -2.5% | inhibition at 10 µM (ACHN): 3.24% | inhibition at 10 µM (BT-549): -8.61% | inhibition at 10 µM (CAKI-1): 24.4% | inhibition at 10 µM (CCRF-CEM): 2.39% | inhibition at 10 µM (COLO 205): -10.1% | inhibition at 10 µM (HCT-15): 22.8% | inhibition at 10 µM (HL-60(TB)): 3.78% | inhibition at 10 µM (K-562): 5.33% | inhibition at 10 µM (M14): -0.51% | inhibition at 10 µM (MCF7): 63% | inhibition at 10 µM (MDA-MB-435): -3.49% | inhibition at 10 µM (MOLT-4): 4.33% | inhibition at 10 µM (NCI-H226): 6.59% | inhibition at 10 µM (NCI-H322M): 2.99% | inhibition at 10 µM (OVCAR-4): 8.34% | inhibition at 10 µM (OVCAR-5): 0.34% | inhibition at 10 µM (RXF 393): -0.84% | inhibition at 10 µM (SK-MEL-2): -9.33% | inhibition at 10 µM (SK-OV-3): -4.32% | inhibition at 10 µM (SNB-19): 8.13% | inhibition at 10 µM (SW-620): 2.21% | inhibition at 10 µM (TK-10): -46.6% | inhibition at 10 µM (UACC-257): -5.04% | ER-α pg/mL (mean ± SEM) (ER-α): 424.9 ± 17.2 pg/mL | inhibition (%) of ER-α (ER-α; compared to control): 62% and 62.4%
